Values quoted from earlier work, collected in patent US20260015580A1, “Methods of Producing and Using Avian Embryonic Stem Cells and Avian Telencephalic Organoids” (The Regents of the University of California, priority 2022, published 2026).

Tested on: phosphorylation of ERK in C26 cells
Details: read-out: IC50, suppressing the phosphorylation of ERK

For `O=C(NOC[C@H](O)CO)c1ccc(F)c(F)c1Nc1ccc(I)cc1F` [PD0325901], which IC50 is on record?
The IC50 was 0.33 nM.
